Assays:
Assay type in all cases: biochemical
AfM [1] = biological target: T1, AfM (Acidithiobacillus ferrooxidans, UniProt B7J5E3); test: spectrophotometric coupled rubisco assay; details: pH 8.0, 25 °C, 1 mM RuBP, 5 mM NaHCO3, 5 mM MgCl2; substrate of ECM, also inhibits the apoenzyme (loose ER complex)
T1 construct: gene cbbL2; His6-ubiquitin fusion cleaved to native N terminus, E. coli BL21 (DE3), hexamer (L6), 313 kDa measured

Q2O2 [2] = biological target: T2, Q2O2 (Acidithiobacillus ferrooxidans, UniProt B7J5E4, W83L); test: coupled ATPase assay (NADH oxidation); details: 25 °C; basal, no rubisco
T2 construct: gene cbbQ-2; co-expressed His6-ubiquitin fusions cleaved, E. coli, CbbQ6CbbO1 hetero-oligomer, 285 kDa measured

AfQ2 = biological target: T3, AfQ2 (Acidithiobacillus ferrooxidans, UniProt B7J5E4); test: coupled ATPase assay (NADH oxidation); details: 25 °C; basal, no rubisco
T3 construct: gene cbbQ-2; His6-ubiquitin fusion cleaved to native N terminus, E. coli, homohexamer, 173 kDa measured

Q2O2 [3] = biological target: T4, Q2O2 (Acidithiobacillus ferrooxidans, UniProt B7J5E4, W83F); test: coupled ATPase assay (NADH oxidation); details: 25 °C; basal, no rubisco
T4 construct: gene cbbQ-2; co-expressed His6-ubiquitin fusions cleaved, E. coli, CbbQ6CbbO1 hetero-oligomer, 285 kDa measured

AfLS = biological target: T5, AfLS (Acidithiobacillus ferrooxidans, UniProt B7JA24); test: spectrophotometric coupled rubisco assay of ECMC complex; details: activated enzyme (ECM) preincubated with fourfold excess of carboxypentitol bisphosphate (1:1 CABP and carboxyribitol isomer); pH 8.0, 25 °C, 20 mM NaHCO3, Mg2+; active site
T5 construct: gene cbbL2; cbbLS in pET30b, E. coli BL21, ion exchange and gel filtration, L8S8 hexadecamer, predicted 530 kDa; with Ribulose bisphosphate carboxylase small subunit

AfM [4] = biological target: T1, AfM; test: as above; details: activated enzyme (ECM) preincubated with fourfold excess of carboxypentitol bisphosphate (1:1 CABP and carboxyribitol isomer); pH 8.0, 25 °C, 20 mM NaHCO3, Mg2+; active site but 5 mM NaHCO3

T1 sequence (B7J5E3 entry or part of it): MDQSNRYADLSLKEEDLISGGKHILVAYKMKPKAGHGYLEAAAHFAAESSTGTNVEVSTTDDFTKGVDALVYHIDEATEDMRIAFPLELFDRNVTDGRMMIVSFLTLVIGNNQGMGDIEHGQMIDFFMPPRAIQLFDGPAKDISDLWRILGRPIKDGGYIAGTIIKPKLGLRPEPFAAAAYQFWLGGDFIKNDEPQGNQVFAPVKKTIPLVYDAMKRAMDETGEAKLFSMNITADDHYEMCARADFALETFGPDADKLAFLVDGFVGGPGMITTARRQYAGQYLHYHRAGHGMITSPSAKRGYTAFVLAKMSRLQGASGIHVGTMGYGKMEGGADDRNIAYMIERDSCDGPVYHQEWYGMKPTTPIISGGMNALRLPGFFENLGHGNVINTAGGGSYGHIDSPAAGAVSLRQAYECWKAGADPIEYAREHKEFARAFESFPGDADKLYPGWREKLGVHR
T2 sequence (B7J5E4 entry or part of it W83L): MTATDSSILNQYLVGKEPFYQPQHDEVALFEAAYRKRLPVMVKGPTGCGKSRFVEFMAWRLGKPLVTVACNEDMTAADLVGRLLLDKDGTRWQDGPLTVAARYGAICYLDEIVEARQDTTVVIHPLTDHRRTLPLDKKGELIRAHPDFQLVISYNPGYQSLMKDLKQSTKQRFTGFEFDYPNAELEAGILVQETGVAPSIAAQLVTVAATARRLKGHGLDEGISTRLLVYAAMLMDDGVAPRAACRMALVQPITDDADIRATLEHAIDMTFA
T2 sequence (B7J5E5 entry or part of it, stated change not applied, further chain): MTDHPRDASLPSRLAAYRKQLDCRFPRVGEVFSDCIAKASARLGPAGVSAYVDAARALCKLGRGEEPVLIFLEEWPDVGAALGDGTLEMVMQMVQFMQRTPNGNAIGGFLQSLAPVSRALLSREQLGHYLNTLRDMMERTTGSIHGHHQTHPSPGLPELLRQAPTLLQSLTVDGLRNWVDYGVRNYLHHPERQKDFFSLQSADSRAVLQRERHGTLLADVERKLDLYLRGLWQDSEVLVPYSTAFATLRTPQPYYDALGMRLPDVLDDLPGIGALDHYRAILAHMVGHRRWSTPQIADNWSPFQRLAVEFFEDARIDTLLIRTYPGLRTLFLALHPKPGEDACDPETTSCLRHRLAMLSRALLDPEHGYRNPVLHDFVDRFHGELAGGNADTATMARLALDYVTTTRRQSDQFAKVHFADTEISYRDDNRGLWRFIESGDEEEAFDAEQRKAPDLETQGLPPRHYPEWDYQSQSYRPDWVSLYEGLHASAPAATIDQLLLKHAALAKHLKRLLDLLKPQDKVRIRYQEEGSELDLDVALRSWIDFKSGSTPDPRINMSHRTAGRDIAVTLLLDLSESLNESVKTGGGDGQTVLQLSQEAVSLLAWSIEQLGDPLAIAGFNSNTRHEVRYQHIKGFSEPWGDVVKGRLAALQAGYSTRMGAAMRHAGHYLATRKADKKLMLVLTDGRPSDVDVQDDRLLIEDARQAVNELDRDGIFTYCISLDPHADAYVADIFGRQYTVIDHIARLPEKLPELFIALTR
T4 sequence (B7J5E4 entry or part of it W83F): as the sequence (B7J5E4 entry or part of it W83L) above, with L83F counted along it
T4 sequence (B7J5E5 entry or part of it, stated change not applied, further chain): as the sequence (B7J5E5 entry or part of it, stated change not applied, further chain) above
T5 sequence (B7JA24 whole entry): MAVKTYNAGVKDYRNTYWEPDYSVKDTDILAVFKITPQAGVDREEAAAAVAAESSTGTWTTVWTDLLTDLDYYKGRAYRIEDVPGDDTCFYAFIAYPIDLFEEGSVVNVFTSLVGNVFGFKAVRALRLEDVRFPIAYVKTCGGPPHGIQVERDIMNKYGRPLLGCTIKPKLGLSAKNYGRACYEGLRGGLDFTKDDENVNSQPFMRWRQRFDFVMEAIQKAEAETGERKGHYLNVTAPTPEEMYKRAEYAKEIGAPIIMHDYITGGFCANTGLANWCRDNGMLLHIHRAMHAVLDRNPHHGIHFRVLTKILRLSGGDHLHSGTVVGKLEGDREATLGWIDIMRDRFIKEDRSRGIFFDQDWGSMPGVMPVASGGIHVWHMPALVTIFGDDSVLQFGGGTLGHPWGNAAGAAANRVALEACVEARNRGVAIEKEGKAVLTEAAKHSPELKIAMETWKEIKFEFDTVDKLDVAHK
T5 sequence (B7JA25 1-118 partner): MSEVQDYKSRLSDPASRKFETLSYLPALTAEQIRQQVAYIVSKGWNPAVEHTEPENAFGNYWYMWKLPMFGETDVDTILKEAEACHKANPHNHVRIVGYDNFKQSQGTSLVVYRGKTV
T3 sequence (B7J5E4 entry or part of it): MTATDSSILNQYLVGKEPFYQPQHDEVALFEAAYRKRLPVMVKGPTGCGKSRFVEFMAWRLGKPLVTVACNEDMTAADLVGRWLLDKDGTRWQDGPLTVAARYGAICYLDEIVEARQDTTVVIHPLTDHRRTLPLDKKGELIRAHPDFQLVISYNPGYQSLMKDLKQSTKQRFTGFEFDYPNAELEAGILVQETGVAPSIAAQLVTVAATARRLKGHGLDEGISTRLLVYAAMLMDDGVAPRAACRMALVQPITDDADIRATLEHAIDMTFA

O=C(COP(=O)(O)O)[C@H](O)[C@H](O)COP(=O)(O)O [RuBP, ribulose-1,5-bisphosphate]
spectrophotometric coupled rubisco assay (AfM [1]): the activities of both AfM ECM and ER rapidly converged to a low rate

Nc1ncnc2c1ncn2[C@@H]1O[C@H](COP(=O)(O)OP(=O)(O)OP(=O)(O)O)[C@@H](O)[C@H]1O [ATP]
coupled ATPase assay (NADH oxidation) (Q2O2 [2]): The W83L and W83F mutants displayed three and twofold increased basal ATPase activities
coupled ATPase assay (NADH oxidation) (AfQ2): Both AfQ2 and Q2O2ΔC444 displayed a low ATPase activity
coupled ATPase assay (NADH oxidation) (Q2O2 [3]): The W83L and W83F mutants displayed three and twofold increased basal ATPase activities

O=C(O)[C@@](O)(COP(=O)(O)O)[C@H](O)[C@H](O)COP(=O)(O)O (mixture of isomers) [CABP, carboxyarabinitol-1,5-bisphosphate]
spectrophotometric coupled rubisco assay of ECMC complex (AfLS): the form I (AfLS) ER and ECMC complexes were inactive
spectrophotometric coupled rubisco assay of ECMC complex (AfM [4]): AfM bound to the transition state analogue CABP (ECMC) formed stable and inactive complexes

Source: paper PMC4660213, “Identification and characterization of multiple rubisco activases in chemoautotrophic bacteria” (Nature Communications, 2015)
